According to patent US20230174526A1, “BENZOTHIAZOLYL BIARYL COMPOUND, AND PREPARATION METHOD AND USE” (SHANGHAI RINGENE BIOPHARMA CO., LTD., priority 2020, published 2023):

Columns and labels:
[1] = In vivo pharmacokinetic parameter testing in mice; set-up: species or system ICR mice; conditions: for AUC(0-t) / clearance / half-life: male, ICR, mouse, plasma, iv(1 mg/kg); for AUC(0-t): read-out: Below the curve and AUC0-t; for clearance: read-out: Clearance rate Cl; for half-life: read-out: Half-life T½ (converted)
CYP2C19 = target: T1, CYP2C19 (Homo sapiens, UniProt P33261); assay: Direct inhibition test (DI test), CYP2C19; type: in vitro ADME; conditions: human liver microsomes
T1 construct: a system of 100 µL of human liver microsomes (final concentration 0.2 mg/mL); from tissue; host or cells: human liver microsomes
T1 sequence (P33261 whole entry): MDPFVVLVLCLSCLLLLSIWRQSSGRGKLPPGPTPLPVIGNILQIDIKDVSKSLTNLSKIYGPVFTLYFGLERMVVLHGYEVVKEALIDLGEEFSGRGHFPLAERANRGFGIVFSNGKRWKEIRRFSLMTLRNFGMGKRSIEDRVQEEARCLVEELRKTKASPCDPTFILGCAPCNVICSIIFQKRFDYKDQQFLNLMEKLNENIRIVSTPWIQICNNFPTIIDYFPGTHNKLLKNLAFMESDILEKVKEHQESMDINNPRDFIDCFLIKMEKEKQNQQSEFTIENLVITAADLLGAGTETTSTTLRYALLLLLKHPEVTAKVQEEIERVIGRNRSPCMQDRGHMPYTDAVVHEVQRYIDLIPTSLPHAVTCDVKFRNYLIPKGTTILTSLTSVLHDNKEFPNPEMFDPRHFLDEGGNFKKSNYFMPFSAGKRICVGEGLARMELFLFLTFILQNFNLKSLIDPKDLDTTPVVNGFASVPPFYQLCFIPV
Method: (§1) Direct inhibition test (DI test): direct inhibition warm incubation was performed with a system of 100 µL of human liver microsomes (final concentration 0.2 mg/mL) containing NADPH (final concentration 1 mM), 10 µM compound, positive inhibitor cocktail (ketoconazole 10 µM, quinidine 10 µM, sulfobenzyrazole 100 µM, α-naphthoflavone 10 µM, tranylcypromine 1000 µM), a negative control (BPS with 0.1% DMSO) and a mixed probe substrate (midazolam 10 µM, testosterone 100 µM, dextromethorphan 10 µM, diclofenac 20 µM, phenacetin100 µM, mephenytoin100 µM), and the reaction was terminated after a warm incubation for 20 min.The relative enzyme activity was calculated by measuring the relative amount of metabolites produced.

CYP2C8 = target: T2, CYP2C8 (Homo sapiens, UniProt P10632); assay: Direct inhibition test (DI test), CYP2C8; type: in vitro ADME; conditions: human liver microsomes
T2 sequence (P10632 1-490): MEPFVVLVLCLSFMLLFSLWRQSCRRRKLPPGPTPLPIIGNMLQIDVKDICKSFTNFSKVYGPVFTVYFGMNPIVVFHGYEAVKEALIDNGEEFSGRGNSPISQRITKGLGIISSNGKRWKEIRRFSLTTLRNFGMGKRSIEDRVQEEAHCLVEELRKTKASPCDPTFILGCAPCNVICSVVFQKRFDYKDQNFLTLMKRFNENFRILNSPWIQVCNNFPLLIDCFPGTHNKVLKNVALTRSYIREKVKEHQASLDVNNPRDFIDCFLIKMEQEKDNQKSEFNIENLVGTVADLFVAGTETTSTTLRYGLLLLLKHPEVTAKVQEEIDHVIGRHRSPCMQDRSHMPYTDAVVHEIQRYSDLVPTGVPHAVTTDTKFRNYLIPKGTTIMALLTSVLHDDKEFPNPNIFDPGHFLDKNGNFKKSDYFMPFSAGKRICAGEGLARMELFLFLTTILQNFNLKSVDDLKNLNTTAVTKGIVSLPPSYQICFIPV

[2] = Metabolic stability assay, rat liver microsomes; type: in vitro ADME; conditions: rat liver microsomes 0.5 mg/mL, 1 µM compound, read-out: Liver microsomal stability (T½ /min) Rat
Method: (§2) Metabolic stability assay: A warm incubation for metabolic stability was performed with a system of 150 µL of liver microsomes (final concentration 0.5 mg/mL) containing NADPH (final concentration 1 mM), 1 µM of the test compound and positive control midazolam or negative control atenolol, and the reaction was terminated with acetonitrile containing tinidazole at 0 min, 5 min, 10 min and 30 min, respectively. The reaction was vortexed for 10 min and centrifuged at 15000 rmp for 10 min, and 50 µL of supernatant was taken into the 96-well plate for sampling. The metabolic stability of the compound was calculated by measuring the relative reduction of the drugs.

CYP3A4 = target: T3, CYP3A4 (Homo sapiens, UniProt P08684); assay: Direct inhibition test (DI test), CYP3A4; type: in vitro ADME; conditions: human liver microsomes
T3 construct: a system of 100 µL of human liver microsomes (final concentration 0.2 mg/mL); from tissue; host or cells: human liver microsomes
T3 sequence (P08684 whole entry): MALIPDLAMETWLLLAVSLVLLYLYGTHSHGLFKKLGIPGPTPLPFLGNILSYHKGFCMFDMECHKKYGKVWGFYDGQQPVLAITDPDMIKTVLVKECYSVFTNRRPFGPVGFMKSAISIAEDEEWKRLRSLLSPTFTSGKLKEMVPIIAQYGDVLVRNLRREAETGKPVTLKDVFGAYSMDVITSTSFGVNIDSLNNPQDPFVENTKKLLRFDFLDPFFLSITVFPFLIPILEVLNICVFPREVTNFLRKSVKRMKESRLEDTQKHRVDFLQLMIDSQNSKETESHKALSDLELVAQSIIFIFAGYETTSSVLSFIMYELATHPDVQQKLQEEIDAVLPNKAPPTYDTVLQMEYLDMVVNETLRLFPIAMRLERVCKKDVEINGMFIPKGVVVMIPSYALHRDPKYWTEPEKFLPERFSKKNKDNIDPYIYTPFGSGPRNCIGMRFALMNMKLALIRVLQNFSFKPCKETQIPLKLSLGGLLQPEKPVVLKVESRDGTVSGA
Method: as §1

hERG potassium channels = hERG potassium channels (Homo sapiens, UniProt Q12809); assay: hERG inhibition test; type: cell-based; conditions: highest test concentration 40 µM
Chain of hERG potassium channels (Q12809 whole entry): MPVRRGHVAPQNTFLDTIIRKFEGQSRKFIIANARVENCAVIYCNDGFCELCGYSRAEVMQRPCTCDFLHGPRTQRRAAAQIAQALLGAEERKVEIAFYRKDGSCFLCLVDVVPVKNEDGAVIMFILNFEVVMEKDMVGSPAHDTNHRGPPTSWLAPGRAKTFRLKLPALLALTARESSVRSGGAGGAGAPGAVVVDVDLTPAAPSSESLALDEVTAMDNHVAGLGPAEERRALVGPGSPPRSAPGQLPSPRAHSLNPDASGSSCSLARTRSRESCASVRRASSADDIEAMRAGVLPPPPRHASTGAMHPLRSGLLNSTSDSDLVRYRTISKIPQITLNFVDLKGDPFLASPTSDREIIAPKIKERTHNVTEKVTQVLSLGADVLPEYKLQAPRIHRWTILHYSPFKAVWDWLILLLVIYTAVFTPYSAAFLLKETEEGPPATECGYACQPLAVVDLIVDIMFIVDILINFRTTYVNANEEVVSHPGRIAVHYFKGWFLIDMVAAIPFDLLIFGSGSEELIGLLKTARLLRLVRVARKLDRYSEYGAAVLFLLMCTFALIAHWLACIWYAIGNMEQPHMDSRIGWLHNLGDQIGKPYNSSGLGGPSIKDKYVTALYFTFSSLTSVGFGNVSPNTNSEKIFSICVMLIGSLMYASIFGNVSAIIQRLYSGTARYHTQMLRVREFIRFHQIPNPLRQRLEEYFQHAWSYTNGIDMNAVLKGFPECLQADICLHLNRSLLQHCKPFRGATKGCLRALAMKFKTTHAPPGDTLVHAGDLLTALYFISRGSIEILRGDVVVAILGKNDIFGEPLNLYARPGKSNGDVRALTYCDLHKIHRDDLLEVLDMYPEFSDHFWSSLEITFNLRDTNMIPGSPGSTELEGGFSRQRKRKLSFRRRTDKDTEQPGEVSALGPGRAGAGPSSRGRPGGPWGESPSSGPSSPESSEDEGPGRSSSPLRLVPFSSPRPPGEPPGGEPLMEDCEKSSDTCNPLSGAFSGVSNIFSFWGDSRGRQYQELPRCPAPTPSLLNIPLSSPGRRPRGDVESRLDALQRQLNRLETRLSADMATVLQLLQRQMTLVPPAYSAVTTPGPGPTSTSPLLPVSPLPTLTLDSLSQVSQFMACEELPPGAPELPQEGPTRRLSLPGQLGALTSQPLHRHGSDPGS

[3] = Metabolic stability assay, monkey liver microsomes; type: in vitro ADME; conditions: monkey liver microsomes 0.5 mg/mL, 1 µM compound, read-out: Liver microsomal stability (T½ /min) monkey
Method: as §2

[4] = tested on: phosphorylated ERK levels of MiaPaca-2; assay: ERK phosphorylation (western blot), MiaPaca-2; type: cell-based; conditions: Homo sapiens, MIA PaCa-2, 24 h
Method: Test method 3 (ERK phosphorylation): Miapaca-2 or H358 cells were inoculated at certain concentrations in 96-well plates and incubated overnight at 37° C., 5% CO2 in a cell culture incubator, and serial dilutions of the test compound (5 concentrations, 3-fold dilution) were added to the plates the next day for 24 h (Miapaca-2) or 3 h (H358), then lysis solution containing protease and phosphatase inhibitor were added to lyse the cells to extract proteins and western blot method was used to detect the level of p-ERK.

[5] = tested on: NCI-H358 (lung cancer) cells; assay: Proliferation test method 1 (2D, MTT), NCI-H358; type: cell-based; conditions: Homo sapiens, 5-7 days, read-out: IC50 proliferation inhibitory activity against NCI-H358
Method: Test method 1 (2D):NCI-H358 (lung cancer) and MiaPaca-2 cells (pancreatic cancer) cells (100 µL/well, 20,000 cells/mL) were inoculated in 96-well culture plates supplemented with 10% fetal bovine serum and 1% penicillin/streptomycin sulfate, respectively.Using 0.5% dimethyl sulfoxide as a blank control, cells were treated with a solution of the compound to be tested at a starting concentration of 10 µM, tripled diluted testing solution of the compound in eight gradients were used to treat cells, and then incubated in a 5% CO2 incubator for a certain period of time (5-7 days).At the end of incubation, 10 µL of MTT stock solution (5 mg/mL) was added to each well.The culture plates were incubated at 37° C. for 4 h and then the medium was removed.Dimethyl sulfoxide (100 µL) was added to each well and then shaken sufficiently. The absorbance of the product formazanwas measured at 570 nm on the Thermo Scientific Varioskan Flash multimode reader.IC50 values were obtained by fitting dose-response data into a three-parameter nonlinear regression model using GraphPad Prism 6.0 software.

| AUC compared to the comparative compound 1 ([1]; in words) | clearance rate Cl compared to the comparative compound 1 ([1]; in words) | pharmacokinetic properties in mice compared to comparative compound 1 ([1]; in words) | AUC(0-t) [1] | clearance [1] | half-life [1] | IC50 (CYP2C19) | IC50 at 20 min (CYP2C8) | half-life at 1 µM [2] | IC50 (CYP3A4) | in vivo metabolic half-life compared to the comparative compound 1 ([1]; in words) | half-life at 1 µM [3] | IC50 [4] | IC50 [5] | Structure (SMILES) | IC50 (hERG potassium channels) |
| --- | --- | --- | --- | --- | --- | --- | --- | --- | --- | --- | --- | --- | --- | --- | --- |
| significantly increased | significantly lower | significantly better | 4.09 ± 0.373 µM·h | 6.35 ± 0.67 mL/min/kg | 390 min | > 10 µM | > 10 µM |  | > 10 µM | significantly longer | > 30 min | < 0.5 µM | < 0.1 µM | C=CC(=O)N1CCN(c2c(C#N)c(OC[C@@H]3CCCN3C)nc3c(F)c(-c4ccc(F)c5sc(N)nc45)c(Cl)cc23)CC1 [Example 3, 4-(4-Piperazinylacryloylpiperazin-1-yl)-7-(2-Amino-7-Fluorobenzo[d]Thiazol-4-yl)-6-Chloro-8-Fluoro-2-(((S)-1-Methylpyrrolidin-2-Yl)Methoxy)Quinoline-3-Cyano] | > 20 µM |
| significantly increased | significantly lower | significantly better | 2.85 ± 0.363 µM·h | 11.5 ± 1.52 mL/min/kg | 31.2 min | > 10 µM | > 10 µM | > 30 min | > 10 µM |  | > 30 min | < 0.5 µM | < 0.1 µM | C=CC(=O)N1CCN(c2c(C#N)cnc3c(F)c(-c4ccc(F)c5sc(N)nc45)c(Cl)cc23)CC1 [Example 8] | > 20 µM |
|  |  |  |  |  |  | > 10 µM | > 10 µM | > 30 min | > 10 µM |  |  | < 0.5 µM | < 0.1 µM | C=CC(=O)N1CCN(c2nc(OC[C@@H]3CCCN3C)nc3c(F)c(-c4ccc(F)c5sc(N)nc45)c(Cl)cc23)C[C@H]1C [Example 11, 1-((2R)-4-(7-(2-Amino-7-Fluorobenzo [d] Thiazol-4-yl) -6-Chloro-8-Fluoro-2-(((S)-1-Methylpyrrolidin-2-yl) Methoxy) Quinazolin-4-yl)-2-Methylpiperazin-1-yl) Prop-2-En-1-One] | > 20 µM |
|  |  | significantly better | 1.29 ± 0.07 µM·h | 21.6 ± 1.05 mL/min/kg | 78 min | > 10 µM | > 10 µM | > 30 min | > 10 µM |  | > 30 min | < 0.5 µM | < 0.1 µM | C=CC(=O)N1CCN(c2c(C#N)c(N3CC(N(C)C)C3)nc3c(F)c(-c4ccc(F)c5sc(N)nc45)c(Cl)cc23)CC1 [Example 21, 4-(4-acryloyl Piperazin-1-yl)-7-(2-Amino-7-Fluorobenzo [d] Thiazol-4-yl) -6-Chloro-2-(3-(Dimethylamino) Azetidine-1-yl)-8-Fluoroquinolin-3 -Cyano] | > 20 µM |

| Structure (SMILES) | AUC compared to the comparative compound 1 ([1]; in words) | clearance rate Cl compared to the comparative compound 1 ([1]; in words) | pharmacokinetic properties in mice compared to comparative compound 1 ([1]; in words) | AUC(0-t) [1] | clearance [1] | half-life [1] | IC50 (CYP2C19) | IC50 at 20 min (CYP2C8) | half-life at 1 µM [2] | IC50 (CYP3A4) | in vivo metabolic half-life compared to the comparative compound 1 ([1]; in words) | half-life at 1 µM [3] | IC50 [4] | IC50 [5] | IC50 (hERG potassium channels) |
| --- | --- | --- | --- | --- | --- | --- | --- | --- | --- | --- | --- | --- | --- | --- | --- |
| C=CC(=O)N1C[C@@H]2C(=O)N(C)c3cnc4c(F)c(-c5ccc(F)c6sc(N)nc56)c(Cl)cc4c3N2C[C@H]1C (single isomer, unassigned) [Example 17-1] | significantly increased | significantly lower | significantly better | 3.31 ± 0.187 µM·h | 9.04 ± 0.5 mL/min/kg | 66 min | > 10 µM | > 10 µM | > 30 min | > 10 µM |  |  |  |  | > 20 µM |
